Source: patent publication US8466118B2, “Modulation of blood brain barrier protein expression” (Saint Louis University, priority 2007, dated 2013)
Oligonucleotides are written 5' to 3', each unit as a sugar letter and its base; * is a phosphorothioate linkage, no mark a phosphodiester; rarer units and linkages stand in square brackets, end groups in braces. Plain capitals give the bases only. d = 2'-deoxy (DNA)

Columns and labels:
beta-F1 ATPase = target: T1, beta-F1 ATPase (Mus musculus, UniProt P56480); test: Brain perfusion uptake of I-PACAP27/I-PACAP38 after iv antisense; type: in vivo; conditions: single tail vein injection 24 h before study, 10 μg/mouse
T1 construct: from tissue; host or cells: brain / blood-brain barrier of living mice (CD-1; SAMP8 in the T-maze study)
Procedure: To test the effectiveness of PTS-6 antisenses after their intravenous administration, two month old male CD-1 mice kept on a 12/12 hour light/dark cycle with food and water freely available were given an injection by tail vein of 0.9% saline with or without 10 μg/mouse of each of the three antisenses. To determine the specificity of the PTS-6 antisense on I-PACAP27 efflux, three other antisenses were also injected iv. These were:
After 24 h, the mice were anesthetized with urethane and both jugular veins exposed. The thorax was opened, the descending thoracic aorta clamped, both jugular veins severed, and lactated Ringer's solution containing I-PACAP27 (250,000 cpm/ml) perfused through the left ventricle of the heart at the rate of 2 ml/min. ^131I-PACAP38 (hereafter referred to as I-PACAP38) was perfused in some mice treated with PTS-6 antisense. After 5 min, the perfusion was stopped and 20 ml of lactated Ringer's solution was infused through the left ventricle of the heart to wash out the vascular space of the brain. The level of radioactivity was determined in the brain and in an aliquot of the perfusion fluid and results expressed as the brain/perfusion ratio in units of μl/g.

LRP-1 [1] = target: T2, LRP-1 (Mus musculus, UniProt Q91ZX7); test: Brain efflux of I-Aβ42 after acute icv antisense; type: in vivo; conditions: 24 h after icv antisense, compared to saline
T2 construct: from tissue; host or cells: brain of living mice (iv, icv or chronic icv antisense)
Excerpt: In vivo brain-to-blood efflux rate of icv antisense: A standard method was used to quantify brain-to-blood efflux rates (Banks et al., Neuroscience 121, 487-492, 2003; Jaeger et al., Proc Natl Acad Sci USA 102, 12495-12500, 2005). First, mice were anesthetized with an i.p. injection of 40% urethane. After the scalp was removed, a hole was made through the cranium (1.0 mm lateral and 0.5 mm posterior to bregma) with a 26-gauge needle. All of the needle except 2.5 to 3.0 mm of the tip was covered by PE-10 tubing. […] Injections were made into the lateral ventricle (icv) with a 1.0 μl Hamilton syringe.
For studies in which the -Slope is reported, this value was determined from a graph created with two time points (0 and 10 min) as described above. After the log of the mean % of the injected dose of radioactivity (amount detected/amount injected*100=% Inj Dose) in each brain was plotted against time (min), linear regression was used to create a line between the multiple values at these two points.
In some experiments, mice received two icv injections (antisense cocktail or saline icv and, at t=30 min or t=24 h, icv I-Aβ42). In these cases, the dose of antisense given was 200 ng/μl LR-BSA and the dose of I-Aβ42 given was 5×10^3 cpm/μl LR-BSA.
In the specificity experiment, mice received two icv injections. […]

LRP-1 [2] = test: Immunohistochemistry of LRP-1 in isolated mouse brain microvessels (MBMs); type: cell-based; conditions: 10 μg/mL, 24 h, buffer = 100%
Excerpt: Isolation of mouse brain microvessels (MBMs): Mouse brain microvessels (MBMs) were isolated by a modification of a method of Gerhart et al (Brain Res Bull 21, 785-793, 1998). All glassware was pre-coated with phosphate buffered saline (PBS) supplemented with 1% BSA (1% BSA/PBS). This was done to minimize adhesion and to maximize recovery of microvessels. Briefly, ten to twelve cerebral cortices from adult male CD-1 mice were collected and the meninges removed. They were homogenized on ice in 5 mL of cold stock buffer (25 mM HEPES, 1% dextran and 1 envelope of Minimum Essential Medium (Invitrogen), pH 7.4). The homogenate was then filtered through a series of nylon mesh membranes (300 μm, then twice through 100 μm; Spectrum, Houston, Tex.), mixed with an equal volume of 40% dextran in stock buffer, and centrifuged at 3,000×g for 30 min at 4° C. […]
Immunohistochemistry of LRP-1 in isolated MBMs: Isolated MBMs were treated with either incubation buffer, random antisense, or antisense cocktail (10 μg/mL) in incubation buffer for 24 h. […] Fluorescence was detected with Zeiss Axiovert 40 CFL fluorescent microscope (Carl Zeiss, Inc., Thornwood, N.Y.). Images were obtained from 5-6 microvessels in each group and mean fluorescent intensity was quantified using Image J analysis software (National Institute of Health, USA).

LRP-1 [3] = target: T2, LRP-1; test: Recognition of a novel object after chronic icv infusion; type: in vivo; conditions: 2 wk icv infusion 100 ng/h
Procedure: Recognition of a novel object: This method has been described previously(Jaeger et al., 2002). Briefly, recognition memory for a novel object was assessed in cocktail and random antisense treated animals (100 ng/h two week infusion). Prior to testing, mice were habituated for three consecutive days to the testing apparatus (a 58×66×11 cm white, plastic box). During habituation, each mouse was allowed to freely explore the testing apparatus for 5 min. On the first day of training, mice were placed in the testing apparatus for 5 min and allowed to explore a pair of identical objects (Objects A and B; both were 7×6.3×5.1 cm). On the second day of training, one of the original objects was replaced with a new, or novel, object (Object C; 8.2×3.8×7.4 cm). Mice were placed in the testing apparatus for 5 min and the amount of time each mouse spent sniffing or touching the novel object was recorded by an observer. Results from this study were expressed as the percent of time spent investigating the novel object.

LRP-1 [4] = target: T2, LRP-1; test: Abluminal-to-luminal transport of I-Aβ42 in primary BMEC monolayers; type: cell-based; conditions: 1 μg/mL unlabeled Aβ42 in abluminal chamber
Procedure: Isolation of mouse brain microvascular endothelial cells (BMECs): BMECs were isolated using a modified method of Szabó et al. (Neurobiology 5, 1-16 (1997). In brief, cerebral cortices from 8-week-old CD-1 mice were isolated, cleaned of meninges, and minced. The homogenate was digested with collagenase type II (1 mg/mL) and DNase I (30 U/mL) in Dulbecco's Modified Eagle Media (DMEM) [containing 100 units/mL penicillin, 100 μg/mL streptomycin, 50 μg/mL gentamicin and 2 mM GlutaMAX-I (Invitrogen, Carlsbad, Calif.)] at 37° C. for 40 min. After digestion, 20% bovine serum albumin (BSA) dissolved in DMEM was added. The sample was then centrifuged at 1,000×g for 20 min, the supernatant containing the neurons and glial cells was removed, and the pellet containing the microvessels further digested at 37° C. for 30 min with collagenase/dispase at a concentration of 1 mg/mL (Roche, Mannheim, Germany) and DNase I (30 U/mL dissolved in DMEM). After the second enzyme digestion, we then layered the pellet on a 33% Percoll (Amersham Biosciences, Piscataway, N.J.) gradient and centrifuged at 1,000×g for 10 min to separate the microvessels. To create the Percoll gradient, 33% Percoll solution (8 mL Percoll, 14.4 mL phosphate buffered saline; PBS, 0.8 mL plasma derived serum; PDS, and 0.8 mL 10×PBS) was centrifuged at 20,300×g for 1 h, prior to this step. […]

P-glycoprotein = conditions: intracranial introduction, rat; cited from earlier work

T2 sequence (Q91ZX7 20-4545): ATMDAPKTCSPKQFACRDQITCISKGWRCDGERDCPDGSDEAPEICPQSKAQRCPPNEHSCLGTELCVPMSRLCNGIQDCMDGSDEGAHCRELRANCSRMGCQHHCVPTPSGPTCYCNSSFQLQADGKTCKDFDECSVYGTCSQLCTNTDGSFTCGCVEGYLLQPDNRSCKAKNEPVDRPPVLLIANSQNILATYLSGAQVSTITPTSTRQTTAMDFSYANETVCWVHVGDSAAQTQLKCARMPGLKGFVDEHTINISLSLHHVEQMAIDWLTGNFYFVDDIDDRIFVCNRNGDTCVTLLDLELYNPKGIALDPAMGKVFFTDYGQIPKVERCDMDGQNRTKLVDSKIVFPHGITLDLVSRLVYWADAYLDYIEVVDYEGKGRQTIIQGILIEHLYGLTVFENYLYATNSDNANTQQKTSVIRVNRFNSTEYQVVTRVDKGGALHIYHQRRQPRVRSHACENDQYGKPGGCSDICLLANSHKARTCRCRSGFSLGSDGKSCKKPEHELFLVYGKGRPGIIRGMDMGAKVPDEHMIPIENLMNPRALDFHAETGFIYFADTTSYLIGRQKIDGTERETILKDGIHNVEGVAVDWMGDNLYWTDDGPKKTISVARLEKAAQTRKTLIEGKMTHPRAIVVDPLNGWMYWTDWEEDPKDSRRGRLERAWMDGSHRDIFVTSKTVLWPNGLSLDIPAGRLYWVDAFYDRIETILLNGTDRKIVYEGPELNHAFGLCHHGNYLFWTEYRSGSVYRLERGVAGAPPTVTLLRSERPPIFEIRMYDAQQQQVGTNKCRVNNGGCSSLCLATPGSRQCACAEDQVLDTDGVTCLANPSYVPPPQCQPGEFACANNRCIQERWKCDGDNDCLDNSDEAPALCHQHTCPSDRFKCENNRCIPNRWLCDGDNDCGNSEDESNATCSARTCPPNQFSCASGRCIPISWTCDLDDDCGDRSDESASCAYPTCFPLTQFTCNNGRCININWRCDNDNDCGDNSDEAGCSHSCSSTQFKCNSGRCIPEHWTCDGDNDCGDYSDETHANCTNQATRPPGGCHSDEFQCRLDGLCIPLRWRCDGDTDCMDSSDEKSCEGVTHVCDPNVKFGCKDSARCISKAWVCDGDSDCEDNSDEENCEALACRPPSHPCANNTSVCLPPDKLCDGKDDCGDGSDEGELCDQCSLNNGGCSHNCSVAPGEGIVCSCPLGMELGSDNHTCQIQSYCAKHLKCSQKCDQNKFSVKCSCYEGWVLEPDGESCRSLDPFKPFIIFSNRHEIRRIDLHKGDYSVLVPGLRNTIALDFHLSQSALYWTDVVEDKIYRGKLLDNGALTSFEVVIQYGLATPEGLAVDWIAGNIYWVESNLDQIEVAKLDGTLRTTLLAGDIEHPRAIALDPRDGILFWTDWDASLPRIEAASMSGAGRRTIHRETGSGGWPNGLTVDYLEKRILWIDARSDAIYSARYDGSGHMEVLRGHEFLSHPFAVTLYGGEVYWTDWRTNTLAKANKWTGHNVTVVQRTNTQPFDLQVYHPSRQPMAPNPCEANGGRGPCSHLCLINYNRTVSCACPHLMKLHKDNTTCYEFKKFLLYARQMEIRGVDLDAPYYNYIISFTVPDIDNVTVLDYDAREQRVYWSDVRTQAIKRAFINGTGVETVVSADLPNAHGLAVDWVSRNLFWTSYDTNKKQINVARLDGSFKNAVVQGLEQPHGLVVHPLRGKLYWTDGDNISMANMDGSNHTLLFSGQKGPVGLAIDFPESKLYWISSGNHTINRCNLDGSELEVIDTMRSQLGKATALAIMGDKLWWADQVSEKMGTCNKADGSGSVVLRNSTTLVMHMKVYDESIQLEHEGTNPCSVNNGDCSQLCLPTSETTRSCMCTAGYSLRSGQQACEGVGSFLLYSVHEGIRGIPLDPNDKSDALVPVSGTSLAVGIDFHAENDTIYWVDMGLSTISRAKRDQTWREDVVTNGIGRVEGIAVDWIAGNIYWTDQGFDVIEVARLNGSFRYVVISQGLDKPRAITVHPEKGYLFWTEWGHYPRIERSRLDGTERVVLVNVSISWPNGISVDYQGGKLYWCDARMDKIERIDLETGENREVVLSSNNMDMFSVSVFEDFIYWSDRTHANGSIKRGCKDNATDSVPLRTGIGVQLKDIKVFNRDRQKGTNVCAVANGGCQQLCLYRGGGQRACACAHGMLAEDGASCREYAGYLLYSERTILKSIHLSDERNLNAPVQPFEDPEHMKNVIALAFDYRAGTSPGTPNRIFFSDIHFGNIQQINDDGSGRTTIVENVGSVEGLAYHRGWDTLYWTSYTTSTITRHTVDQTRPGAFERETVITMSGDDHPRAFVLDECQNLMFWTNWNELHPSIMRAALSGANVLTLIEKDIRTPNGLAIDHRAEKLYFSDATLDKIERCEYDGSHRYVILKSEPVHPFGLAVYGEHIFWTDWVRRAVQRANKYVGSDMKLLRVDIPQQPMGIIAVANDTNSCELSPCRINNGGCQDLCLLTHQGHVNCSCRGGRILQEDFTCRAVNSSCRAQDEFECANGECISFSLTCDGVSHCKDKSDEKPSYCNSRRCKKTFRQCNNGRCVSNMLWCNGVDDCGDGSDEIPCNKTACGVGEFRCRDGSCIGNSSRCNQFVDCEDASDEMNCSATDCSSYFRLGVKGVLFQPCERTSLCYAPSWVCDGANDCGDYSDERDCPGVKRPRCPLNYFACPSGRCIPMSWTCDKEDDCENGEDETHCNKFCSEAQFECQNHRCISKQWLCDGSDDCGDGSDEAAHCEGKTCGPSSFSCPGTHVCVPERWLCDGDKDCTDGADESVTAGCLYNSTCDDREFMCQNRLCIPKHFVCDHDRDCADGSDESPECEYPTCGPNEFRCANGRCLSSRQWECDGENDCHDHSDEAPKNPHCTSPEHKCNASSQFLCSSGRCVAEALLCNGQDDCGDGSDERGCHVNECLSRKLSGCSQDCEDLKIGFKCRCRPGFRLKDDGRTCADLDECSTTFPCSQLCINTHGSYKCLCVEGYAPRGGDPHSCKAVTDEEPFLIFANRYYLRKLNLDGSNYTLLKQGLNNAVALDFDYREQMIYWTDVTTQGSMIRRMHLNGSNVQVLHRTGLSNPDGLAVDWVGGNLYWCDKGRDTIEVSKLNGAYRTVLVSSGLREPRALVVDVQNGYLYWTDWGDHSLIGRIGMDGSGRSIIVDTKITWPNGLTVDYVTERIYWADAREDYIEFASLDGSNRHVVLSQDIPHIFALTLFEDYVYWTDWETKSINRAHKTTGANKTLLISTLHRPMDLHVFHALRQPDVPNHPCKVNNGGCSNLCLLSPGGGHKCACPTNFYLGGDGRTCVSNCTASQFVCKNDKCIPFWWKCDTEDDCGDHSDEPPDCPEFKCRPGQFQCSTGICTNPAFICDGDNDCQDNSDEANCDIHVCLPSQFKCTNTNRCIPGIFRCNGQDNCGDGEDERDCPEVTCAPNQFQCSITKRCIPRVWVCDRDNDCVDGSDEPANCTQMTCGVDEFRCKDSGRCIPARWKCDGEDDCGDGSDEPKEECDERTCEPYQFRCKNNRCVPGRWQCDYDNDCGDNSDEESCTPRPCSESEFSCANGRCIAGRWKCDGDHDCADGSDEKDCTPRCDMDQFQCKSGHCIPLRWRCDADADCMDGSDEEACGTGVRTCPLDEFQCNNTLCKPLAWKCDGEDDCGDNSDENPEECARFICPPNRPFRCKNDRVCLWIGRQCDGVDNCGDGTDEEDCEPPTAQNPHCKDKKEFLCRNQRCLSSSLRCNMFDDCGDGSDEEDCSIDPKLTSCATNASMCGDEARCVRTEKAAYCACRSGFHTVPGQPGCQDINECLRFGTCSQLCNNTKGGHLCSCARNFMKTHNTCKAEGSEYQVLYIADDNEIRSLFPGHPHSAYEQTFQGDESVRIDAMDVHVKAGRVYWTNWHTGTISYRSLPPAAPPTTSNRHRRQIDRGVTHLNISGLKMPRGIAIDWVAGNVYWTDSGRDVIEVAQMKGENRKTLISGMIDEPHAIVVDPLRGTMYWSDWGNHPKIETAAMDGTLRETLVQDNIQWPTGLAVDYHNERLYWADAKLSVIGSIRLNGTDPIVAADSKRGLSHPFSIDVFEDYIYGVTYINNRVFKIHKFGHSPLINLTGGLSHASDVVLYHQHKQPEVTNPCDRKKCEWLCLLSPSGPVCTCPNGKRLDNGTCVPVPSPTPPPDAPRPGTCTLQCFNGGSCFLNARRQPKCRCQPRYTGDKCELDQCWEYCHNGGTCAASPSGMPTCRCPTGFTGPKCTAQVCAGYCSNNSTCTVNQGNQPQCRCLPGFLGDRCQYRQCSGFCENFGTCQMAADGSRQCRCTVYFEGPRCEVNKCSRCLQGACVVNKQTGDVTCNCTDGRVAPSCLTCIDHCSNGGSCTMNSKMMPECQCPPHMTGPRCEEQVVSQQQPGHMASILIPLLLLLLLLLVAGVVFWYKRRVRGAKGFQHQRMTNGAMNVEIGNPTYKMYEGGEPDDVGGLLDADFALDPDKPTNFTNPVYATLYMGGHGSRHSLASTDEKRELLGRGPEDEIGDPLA
T1 sequence (P56480 47-529): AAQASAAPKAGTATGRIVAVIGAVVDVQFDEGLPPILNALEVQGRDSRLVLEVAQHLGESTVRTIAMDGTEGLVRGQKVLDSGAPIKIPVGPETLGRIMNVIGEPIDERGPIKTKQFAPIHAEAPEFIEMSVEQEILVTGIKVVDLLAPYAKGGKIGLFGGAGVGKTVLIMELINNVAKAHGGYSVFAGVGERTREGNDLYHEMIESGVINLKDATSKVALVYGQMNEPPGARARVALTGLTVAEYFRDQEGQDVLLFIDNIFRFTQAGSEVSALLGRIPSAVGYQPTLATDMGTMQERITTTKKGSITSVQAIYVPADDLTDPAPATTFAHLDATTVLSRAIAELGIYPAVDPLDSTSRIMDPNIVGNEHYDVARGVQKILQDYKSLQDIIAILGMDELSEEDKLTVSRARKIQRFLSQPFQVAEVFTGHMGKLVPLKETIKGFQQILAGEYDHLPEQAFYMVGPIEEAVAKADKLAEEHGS

Substance | uptake of I-PACAP27 delivered by brain perfusion (beta-F1 ATPase) | brain efflux of I-Aβ42 (specificity experiment) (LRP-1 [1]) | also measured
5′-(_P═S)GGCGCCTTTGTTCGAACCCACATCTTCAGCAAAGAACACCAG-3′ (antisense dG*dG*dC*dG*dC*dC*dT*dT*dT*dG*dT*dT*dC*dG*dA*dA*dC*dC*dC*dA*dC*dA*dT*dC*dT*dT*dC*dA*dG*dC*dA*dA*dA*dG*dA*dA*dC*dA*dC*dC*dA*dG; listed as Mus musculus) | no statistically significant effect | significant increase | 
5′-(_P═S)GAGAAGGTTGTGTGATCTTCA (antisense dG*dA*dG*dA*dA*dG*dG*dT*dT*dG*dT*dG*dT*dG*dA*dT*dC*dT*dT*dC*dA; listed as Mus musculus) [random antisense] |  |  | mean fluorescent intensity (LRP-1 immunofluorescence) (LRP-1 [2]): 111.14%; time spent investigating the novel object (LRP-1 [3]): spent a majority of their time investigating the new object
Aβ42: 42 amino acid murine amyloid beta (DAEFGHDSGFEVRHQKLVFFAEDVGSNKGAIIGLMVGGVVIA; Amyloid-beta protein 42; UniProt P12023 672-713, looked up) |  |  | abluminal-to-luminal transport of I-Aβ42 (saturability) (LRP-1 [4]): significantly (p<0.01) inhibited
5′-(_P═S)TCATGAAGCC-3′ (antisense dT*dC*dA*dT*dG*dA*dA*dG*dC*dC; listed as Mus musculus) | no statistically significant effect | significant increase | 
5′-GGACTAAATGCTTTCCTTTGTGACAG-3′ (listed as DNA, chemistry not given here; listed as Rattus norvegicus) [SEQ ID NO 16] |  |  | P-glycoprotein expression in the brain (P-glycoprotein): reduction of the rat P-glycoprotein expression
